The source of these data is ChEMBL document CHEMBL1201862, “PubChem BioAssay data set” (2004).

Structures are written as SMILES.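 Protocol summary: plate cells (96-well), add compound at 5 concentrations, incubate 48 h, interpolate endpoints linearly. Here, GI50 denotes the concentration required for 50% inhibition of growth.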 The source made the active and inactive calls. Cut-off read from the data, not from the text of the source: active = GI50 up to about 1.1 µM and inactive = higher. A value given as a limit tells only on which side of the number the result lay.

Among the test systems are CAKI-1; DU-145; MCF7; HOP-62; ACHN; M14; TK-10; COLO 205; OVCAR-8; IGROV-1; SF-295; UACC-257; SW-620; HL-60; NCI/ADR-RES; NCI-H460; LOX IMVI; NCI-H23; SK-MEL-2.
Experiment in all cases: NCI-60 cell line screen, 48 h

Consider `Cc1cc(C)nc(NS(=O)(=O)c2ccc(NC(=O)c3cccc4c(NNc5ccc(S(=O)(=O)N=C(N)N)cc5)c5ccccc5nc34)cc2)n1`, for which the GI50 in the assay on CAKI-1, in the assay on DU-145, in the assay with MCF7, in the assay with HOP-62, with ACHN and with M14 was > 50 µM (inactive) each time. In addition, the GI50 in the assay with TK-10, in the assay with COLO 205, with OVCAR-8, in the assay on IGROV-1, with SF-295 and in the assay on UACC-257 was > 50 µM (inactive) throughout. The GI50 in the assay with SW-620, in the assay with HL-60, in the assay on NCI/ADR-RES, with NCI-H460, with LOX IMVI and in the assay with NCI-H23 was > 50 µM (inactive) in each case.

Turning to `Cc1ccnc2[nH]c(-c3ccccc3)cc(=O)c12`, the GI50 in the assay with CAKI-1 was 0.0116 µM (active); in the assay with DU-145 it was 0.0313 µM (active); with MCF7, 0.0398 µM (active); with ACHN, 0.0458 µM (active); in the assay with M14, 0.00658 µM (active); in the assay with TK-10 it was 0.106 µM (active). Further, the GI50 is 0.0039 µM (active) in the assay with COLO 205; 0.027 µM (active) with OVCAR-8; 0.0726 µM (active) with IGROV-1; 0.00309 µM (active) in the assay with SF-295; 0.0113 µM (active) in the assay with UACC-257; 0.00421 µM (active) with SW-620. For the same compound, the GI50 is 0.00188 µM (active) in the assay with HL-60; 0.00451 µM (active) in the assay on NCI/ADR-RES; 0.00682 µM (active) with NCI-H460; 0.0149 µM (active) in the assay with LOX IMVI; 0.0297 µM (active) in the assay on NCI-H23.

For `Cc1ccc2c(=O)cc(Cc3cccs3)[nH]c2n1`, the GI50 with CAKI-1, in the assay with DU-145, with MCF7, in the assay on HOP-62, with M14 and with TK-10 was > 100 µM (inactive) each time. Further, the GI50 in the assay on COLO 205, with OVCAR-8, in the assay on IGROV-1, in the assay with SF-295, in the assay with SK-MEL-2 and with UACC-257 was > 100 µM (inactive) throughout. Further, the GI50 with SW-620, in the assay with HL-60, in the assay with NCI/ADR-RES, in the assay with LOX IMVI and in the assay with NCI-H23 was > 100 µM (inactive) throughout.

Turning to `CC(=O)N(CCc1ccccc1)C(C#N)c1ccccc1` (configuration not stated), the GI50 with CAKI-1, in the assay on DU-145, in the assay on MCF7, in the assay on HOP-62, in the assay on ACHN and in the assay with M14 was > 100 µM (inactive) in each case. Moreover, the GI50 in the assay with TK-10, in the assay on COLO 205, in the assay on OVCAR-8, in the assay with IGROV-1, with SF-295 and in the assay on SK-MEL-2 was > 100 µM (inactive) each time. Moreover, the GI50 with UACC-257, in the assay with SW-620, with HL-60, with NCI/ADR-RES, in the assay with LOX IMVI and with NCI-H23 was > 100 µM (inactive) in each case.

Regarding `Cc1nc(C)c(N2CCNCC2)c(O)n1`, the GI50 in the assay on CAKI-1, in the assay on DU-145, in the assay on MCF7, in the assay on HOP-62, with ACHN and with M14 was > 100 µM (inactive) throughout. Further, the GI50 with TK-10, in the assay with COLO 205, with OVCAR-8, with IGROV-1, in the assay with SF-295 and with UACC-257 was > 100 µM (inactive) each time. The GI50 in the assay with SW-620, with HL-60, with NCI/ADR-RES, in the assay on NCI-H460, with LOX IMVI and in the assay on NCI-H23 was > 100 µM (inactive) in each case.

Consider `O=C(O)c1c2c(cc3c1CC1(Cc4cc5c(cc4C1=O)CCC5)C3)CCC2` (configuration not stated), for which the GI50 in the assay on DU-145 was 98.2 µM (inactive); in the assay with MCF7 it was 42.4 µM (inactive); with HOP-62, > 100 µM (inactive); with ACHN, 56.4 µM (inactive); in the assay with M14, > 100 µM (inactive); with TK-10 it was > 100 µM (inactive). For the same compound, the GI50 in the assay with COLO 205 was 52.4 µM (inactive); in the assay with OVCAR-8, > 100 µM (inactive); with IGROV-1, > 100 µM (inactive); with SF-295, > 100 µM (inactive); in the assay with SK-MEL-2, > 100 µM (inactive); with UACC-257 it was 56.6 µM (inactive). The GI50 with SW-620 is > 100 µM (inactive); in the assay on HL-60, 65.2 µM (inactive); with NCI/ADR-RES it was > 100 µM (inactive); in the assay with NCI-H460, 71.1 µM (inactive); with LOX IMVI, 57.1 µM (inactive); with NCI-H23 it was 81.1 µM (inactive).

Take `COc1ccc(NC(=O)CC(=O)N2N=C(N(c3ccccc3)c3ccccc3)CC2c2ccccc2)cc1` (configuration not stated): the GI50 with CAKI-1, with DU-145, in the assay with MCF7, with HOP-62, in the assay on ACHN and with M14 was > 100 µM (inactive) throughout. In addition, the GI50 with TK-10, in the assay with COLO 205, with OVCAR-8, in the assay on IGROV-1, in the assay with SF-295 and with SK-MEL-2 was > 100 µM (inactive) each time. Moreover, the GI50 in the assay with UACC-257, in the assay with SW-620, in the assay on HL-60, in the assay with NCI/ADR-RES, in the assay on LOX IMVI and in the assay with NCI-H23 was > 100 µM (inactive) in each case.

Consider `C[n+]1c(/C=C/c2ccc(/C=N/NC(=O)c3ccc(C(=O)N/N=C/c4ccc(/C=C/c5cn6ccccc6[n+]5C)cc4)cc3)cc2)cn2ccccc21`, for which the GI50 in the assay on CAKI-1, in the assay with DU-145, in the assay with MCF7, with HOP-62, in the assay on ACHN and in the assay on M14 was > 100 µM (inactive) each time. Besides, the GI50 in the assay with TK-10 was > 100 µM (inactive); in the assay on COLO 205 it was 98.4 µM (inactive); with OVCAR-8, > 100 µM (inactive); with IGROV-1, > 100 µM (inactive); in the assay on SF-295, > 100 µM (inactive); in the assay on UACC-257, > 100 µM (inactive). The GI50 in the assay on SW-620 is > 100 µM (inactive); in the assay with HL-60, 23.4 µM (inactive); in the assay with NCI/ADR-RES, > 100 µM (inactive); in the assay with NCI-H460 it was > 100 µM (inactive); in the assay with LOX IMVI, > 100 µM (inactive); with NCI-H23, > 100 µM (inactive).
